Laboratory results published in patent publication US20220265775A1, “COMPOSITIONS AND METHODS FOR TREATING PULMONARY EDEMA OR LUNG INFLAMMATION” (priority 2019, published 2022).

What was measured:
RLE-6TN cells = assay: RLE-6TN cell survival under hyperoxia and recovery, viable cells counted by trypan blue exclusion; assay type: cell-based, rat
Protocol: FIG. 7. […] The cells were cultured in DMEM/F12 with 10% FBS in 21% O2 and 5% CO2 overnight. […] The viable cells are counted immediately after 72-hour hyperoxia exposure. Cell viability is assessed with trypan blue. The amount of viable cells under specific conditions is presented as a percentage of the cell number from hyperoxia alone. Data are mean±s.d. of four independent experiments with *=P<0.05; **=P<0.01.
FIG. 8. […] In both (A) and (B), the number of viable cells under specific conditions is presented as a percentage of the cell number related to hyperoxia alone in the same experiment. Data are mean s.d. of four independent experiments with *=P<0.05; **=P<0.01.
(§1) FIG. 10. HO-1 upregulation is required for T3-increased RLE-6TN cell survival in hyperoxia. […] The cells were then collected for Western Blot analysis. (B) The cells were incubated in 21% O2 and 5% CO2 for 72 hours in the present of HO-1 inhibitor Tin Protoporphyrin IX (10^−6M). […] Cell viability is assessed with trypan blue. The number of viable cells under specific conditions is presented as a percentage of the cell number related to hyperoxia alone. Data are mean±s.d. of three independent experiments with *=P<0.05; **=P<0.01.
FIG. 11. PI3K inhibitor wortmannin blocked T3-induced cell survival in hyperoxia. […] Cell viability is assessed with trypan blue. The number of viable cells under specific conditions is presented as a percentage of the cell number related to hyperoxia alone. Data are mean±s.d. of four independent experiments with *=P<0.05; **=P<0.01.
At the end of the hyperoxia exposure period, the viable cells were counted by trypan blue dye exclusion.

HO-1 = assay: Western blot of total cellular HO-1 protein in RLE-6TN cells under hyperoxia; assay type: cell-based, rat; details: T3 10^−6 M
Protocol: as §1
(§2) The cells were lysed in lysis buffer containing 20 mM Tris HCl (pH 7.5), 150 mM NaCl, 1 mM EDTA, 1 mM EGTA, 1% (vol/vol) Triton X-100 with protease inhibitors (1 mM PMSF, 2 μg/ml pepstatin, and 10 μg/ml each of aprotinin and leupeptin), and phosphatase inhibitors (2.5 mM sodium pyrophosphate, 1 mM β-glycerophosphate, and 1 mM Na3VO4). The lysate was drawn 10 times through a 25-gauge needle on ice for further lysis and then was centrifuged at 13,000 rpm for 15 minutes at 4° C. The supernatant was collected, and the protein concentrations were determined by use of the BCA protein assay kit (Sigma-Aldrich, St. Louis, Mo.). Immediately after this step, equal amounts of protein were subjected to Western blotting analysis.

Nrf2 = assay: Western blot of total cellular and nuclear Nrf2 protein in RLE-6TN cells under hyperoxia; assay type: cell-based, rat; details: 24 hours of hyperoxia, 10^−6 M T3
Protocol: FIG. 9. […] The cells were then collected for Western Blot analysis. (A) Cellular total Nrf2 protein; (B) Nuclear Nrf2.
Nuclei were extracted with NE-PER nuclear and cytoplasmic extraction reagents kit (Thermo Fisher Scientific, Inc., Waltham, Mass.) following the manufacturer's instruction.
as §2

[1] = tested on: myeloperoxidase (MPO) activity in lung tissue; assay: Myeloperoxidase (MPO) activity assay and MPO immunostaining of lung tissue of hyperoxia-exposed rats; assay type: in vivo, Sprague Dawley rats
Description: (§3) All experimental protocols for animal treatments were approved by the University of Minnesota Institutional Animal Care and Use Committee. […] The room-air control rats were kept in the University animal housing facility. At the end of hyperoxic exposure, rats were sacrificed by intraperitoneal pentobarbital injection, and the lungs were harvested; the right lobes were allocated for histopathology, measurement of lung tissue myeloperoxidase (MPO) activity and wet-to-dry weight ratio. The left lobes underwent bronchoalveolar lavage (BAL) to determine BAL protein concentrations and differential cell counts.
To quantify the neutrophil activity in the lung, MPO activity was assayed as previously described (Abraham et al., J Immunol 165:2950-2954, 2000). Lung tissues without prior lavage were frozen in liquid nitrogen, weighed, and stored at −86° C. The lungs were homogenized for 30 seconds in 1.5 ml 20 mM potassium phosphate, pH 7.4, and centrifuged at 4° C. for 30 minutes at 40,000×g. The pellet was resuspended in 1.5 ml 50 mM potassium phosphate, pH 6.0, containing 0.5% hexadecyltrimethylammonium bromide, sonicated for 90 seconds, incubated at 60° C. for two hours, and centrifuged at 14,000 rpm for 30 minutes at 4° C. The supernatant was assayed for peroxidase activity corrected to lung weight. MPO was expressed as activity per gram of lung tissue. […]

[2] = tested on: hyperoxia-induced lung injury; assay: Wet-dry lung weight ratio in hyperoxia-exposed rats; assay type: in vivo, Sprague Dawley rats; details: 60 hours of hyperoxia (O2 with T3), intraperitoneal T3 12.5 μg/kg body weight each 12 hours, O2 alone 6.61±0.604, p=0.0495
Description: as §3
A portion of the right lung was rinsed briefly in PBS, blotted, and then weighed to obtain the “wet” weight. Lungs then were dried in an oven at 80° C. for seven days to obtain the “dry” weight.

[3] = Preliminary tolerability of intratracheal instillation of liothyronine sodium in rats; assay type: in vivo; details: preliminary studies, pH of >10.0 as supplied commercially
Protocol: Therefore, the liothyronine sodium and the vehicle were adjusted to neutral pH (6.0-8.0) with sterile 1.0 N HCl (Sigma-Aldrich, St. Louis, Mo.) added aseptically in a biosafety cabinet prior to intratracheal instillation into animals. Using aseptic technique, vials of liothyronine sodium were opened and the entire contents were transferred into sterile 1.5 mL Eppendorf tubes. 80-90 μL of 1.0 N HCl was added to the tube and gently vortexed, and the pH was measured using pH test strips (pH 4.5 to 10.0, Ricca Chemical Co., Arlington, Tex.). Additional HCl was titrated in gradually, as needed, until the pH was in the desired range. […] This solution was stored at 4° C. and used for up to 26 hours after pH adjustment procedure. […] The vehicle was also adjusted to neutral pH (6.0-8.0) with 1.0 N HCl as described above. Using aseptic technique the vehicle was filter sterilized and aliquoted into 21 sterile disposable tubes (5 mL each) and stored at 4° C., and a new tube was opened for each day of use. Normal Saline (0.9% Sodium Chloride Injection USP, B. Braun Medical, Inc., Bethlehem, Pa.), was stored at room temperature. A new package was opened for each day of use.

Akt = assay: Western blot of Akt phosphorylation in RLE-6TN cells under hyperoxia; assay type: cell-based, rat; details: hyperoxia for 24 hours, T3 added for 20 minutes, vs room air control and hyperoxia alone
Protocol: FIG. 12. T3-induced increase activation of Akt by phosphorylation. (A) T3 augmented phosphorylation of Akt (p-Akt). […] (C) The PI3K inhibitor wortmannin blocked the T3-induced increase in total cellular amount of HO-1 protein.
as §2

Compound: N[C@@H](Cc1cc(I)c(Oc2ccc(O)c(I)c2)c(I)c1)C(=O)O [T3, triiodothyronine]
- number of viable AT2 cells at 48 hours of recovery (RLE-6TN cells; 90% oxygen for 24 or 48 hours, compound present only during recovery in 21% O2): significantly increased the number of viable AT2 cells
- increase in number of surviving cells compared with hyperoxia control (RLE-6TN cells; 90% oxygen for 72 hours, 10^−6M): ~2.5 fold
- protective effect on viable AT2 cell number after recovery in room air (RLE-6TN cells; hyperoxia 72 hours with T3, then room air 72 hours with no supplemental T3): persisted and was of similar magnitude
- total cellular protein of HO-1 (HO-1): significantly enhanced total cellular protein of HO-1
- nuclear Nrf-2 protein expression (Nrf2): significantly increased both total cellular and nuclear Nrf-2 protein expression
- total cellular Nrf-2 protein expression (Nrf2): significantly increased both total cellular and nuclear Nrf-2 protein expression
- MPO-positive cells in the lungs (immunostaining) ([1]; T3-injected rats exposed to 95% oxygen for 60 hours vs hyperoxic lungs without T3): fewer MPO-positive cells
- lung MPO activity ([1]; rats, 60 hours of hyperoxia, T3 supplementation vs hyperoxia alone): significantly reduced the hyperoxia-induced MPO activity
- wet-to-dry lung weight ratio [2]: 5.82±0.197
- tolerability of intratracheal instillation [3]: do not tolerate
- phosphorylation of Akt (p-Akt) (Akt): augmented phosphorylation of Akt at Ser473
